Measurements taken from ChEMBL document CHEMBL1201862, “PubChem BioAssay data set” (2004).
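Step 1: Grow cells in 96-well plates. Step 2: Expose to compound for 48 hours at 5 concentrations. Step 3: Interpolate endpoints linearly; if unreached, use highest concentration. GI50 is the concentration that inhibits growth by half.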 Calls of active or inactive are those of the source. Cut-off read from the data, not from the text of the source: active = GI50 up to about 1.1 µM and inactive = higher.

Columns and labels:
Test in all cases: growth of human tumour cells (NCI), 48 h
A549 = test system: A549
MDA-N = test system: MDA-N
HCT-116 = test system: HCT-116
U-251 = test system: U-251
NCI/ADR-RES = test system: NCI/ADR-RES
OVCAR-5 = test system: OVCAR-5
BT-549 = test system: BT-549
NCI-H23 = test system: NCI-H23
T47D = test system: T47D
MCF7 = test system: MCF7
ACHN = test system: ACHN
MDA-MB-231 = test system: MDA-MB-231
UACC-257 = test system: UACC-257
MOLT-4 = test system: MOLT-4
NCI-H522 = test system: NCI-H522
SN12C = test system: SN12C
EKVX = test system: EKVX
SK-MEL-28 = test system: SK-MEL-28
HCC 2998 = test system: HCC 2998

Structure (SMILES)	GI50 (A549)	GI50 (MDA-N)	GI50 (HCT-116)	GI50 (U-251)	GI50 (NCI/ADR-RES)	GI50 (OVCAR-5)	GI50 (BT-549)	GI50 (NCI-H23)	GI50 (T47D)	GI50 (MCF7)	GI50 (ACHN)	GI50 (MDA-MB-231)	GI50 (UACC-257)	GI50 (MOLT-4)	GI50 (NCI-H522)	GI50 (SN12C)	GI50 (EKVX)	GI50 (SK-MEL-28)	GI50 (HCC 2998)
O=[N+]([O-])c1ccc(C[S+]([O-])Cc2ccccc2)cc1 (centres undefined)	> 100 µM (inactive)	> 100 µM (inactive)	> 100 µM (inactive)	> 100 µM (inactive)	> 100 µM (inactive)	> 100 µM (inactive)	> 100 µM (inactive)	> 100 µM (inactive)	> 100 µM (inactive)	> 100 µM (inactive)	> 100 µM (inactive)	> 100 µM (inactive)	> 100 µM (inactive)	> 100 µM (inactive)	> 100 µM (inactive)	> 100 µM (inactive)	> 100 µM (inactive)	> 100 µM (inactive)	
CCOC(=O)/C(C(=O)c1ccc([N+](=O)[O-])cc1)=C(\NS(=O)(=O)c1cc(C)c(Cl)cc1[S-])[n+]1ccc(N(C)C)cc1	38.8 µM (inactive)	35.5 µM (inactive)	19.2 µM (inactive)	41.6 µM (inactive)	43.1 µM (inactive)	28.8 µM (inactive)	35.5 µM (inactive)		50.8 µM (inactive)	40.3 µM (inactive)	30.1 µM (inactive)	47.9 µM (inactive)	6.47 µM (inactive)	32.2 µM (inactive)	12.4 µM (inactive)	61.7 µM (inactive)		28.3 µM (inactive)	
CC(C)(C)OC(=O)C(C#N)C(=O)c1ccc(C(=O)O)[nH]1 (centres undefined)	35.9 µM (inactive)	40.4 µM (inactive)	38.4 µM (inactive)	30.6 µM (inactive)	12.7 µM (inactive)	48.4 µM (inactive)	48.5 µM (inactive)	36.3 µM (inactive)	34.6 µM (inactive)		32.2 µM (inactive)	29.4 µM (inactive)	30.2 µM (inactive)	33.6 µM (inactive)	33.5 µM (inactive)	43.1 µM (inactive)	29.2 µM (inactive)	62.2 µM (inactive)	
N#CC(c1cc(Cl)ncn1)c1nc2ccccc2s1 (centres undefined)	27.8 µM (inactive)	6.03 µM (inactive)	7.53 µM (inactive)	4.02 µM (inactive)	3.29 µM (inactive)	18.1 µM (inactive)	5 µM (inactive)	5.04 µM (inactive)	2.67 µM (inactive)		18.3 µM (inactive)	11.1 µM (inactive)	10.5 µM (inactive)	3.42 µM (inactive)	2.07 µM (inactive)	2.61 µM (inactive)	20.9 µM (inactive)	19.3 µM (inactive)	
Cc1cc(CCC(=O)NCCNc2c3ccccc3nc3ccccc23)cc(C)c1O[Si](C)(C)C(C)(C)C	0.638 µM (active)	0.399 µM (active)	0.363 µM (active)	0.312 µM (active)	1.81 µM (inactive)	1.69 µM (inactive)	1.72 µM (inactive)	1.93 µM (inactive)	0.351 µM (active)	0.242 µM (active)	1.66 µM (inactive)	13.1 µM (inactive)	2.01 µM (inactive)	0.414 µM (active)	1.73 µM (inactive)	15.5 µM (inactive)	1.6 µM (inactive)	1.92 µM (inactive)	
CC(=O)OC1COC(Nn2c(=O)[nH]c3ccccc3c2=O)C(OC(C)=O)C1OC(C)=O (centres undefined)	> 100 µM (inactive)	> 100 µM (inactive)	> 100 µM (inactive)	> 100 µM (inactive)	17.9 µM (inactive)	> 100 µM (inactive)	> 100 µM (inactive)	> 100 µM (inactive)	47.1 µM (inactive)	> 100 µM (inactive)	> 100 µM (inactive)	> 100 µM (inactive)	> 100 µM (inactive)	> 100 µM (inactive)		> 100 µM (inactive)	36.1 µM (inactive)	> 100 µM (inactive)	
O=C(CCCN1CCC2(CC1)CC(=O)N(N1CCCCCC1)C2=O)c1ccccc1	> 100 µM (inactive)	> 100 µM (inactive)	> 100 µM (inactive)	> 100 µM (inactive)	> 100 µM (inactive)	> 100 µM (inactive)	> 100 µM (inactive)	> 100 µM (inactive)	> 100 µM (inactive)	> 100 µM (inactive)	> 100 µM (inactive)	> 100 µM (inactive)	> 100 µM (inactive)	> 100 µM (inactive)	> 100 µM (inactive)	> 100 µM (inactive)	> 100 µM (inactive)	> 100 µM (inactive)	
O=C1[C@@H]2Cc3c([nH]c4ccccc34)C(C3CCCCC3)N2C(=O)[C@@H]2CCCN12 (some centres undefined)	33.1 µM (inactive)	30.2 µM (inactive)	27.5 µM (inactive)	33.8 µM (inactive)	22 µM (inactive)	37.8 µM (inactive)	30.6 µM (inactive)	38.1 µM (inactive)	60 µM (inactive)	30.4 µM (inactive)	28.9 µM (inactive)	21.1 µM (inactive)	29.2 µM (inactive)	23 µM (inactive)	23 µM (inactive)	26.5 µM (inactive)	33.5 µM (inactive)	50.2 µM (inactive)	
CC(=S)NC1C(Oc2ccc3c(C)cc(=O)oc3c2)OC(CO)C(O)C1O (centres undefined)	> 100 µM (inactive)	> 100 µM (inactive)	> 100 µM (inactive)	> 100 µM (inactive)	> 100 µM (inactive)	> 100 µM (inactive)	> 100 µM (inactive)		> 100 µM (inactive)	> 100 µM (inactive)	> 100 µM (inactive)	> 100 µM (inactive)	> 100 µM (inactive)	> 100 µM (inactive)		> 100 µM (inactive)	> 100 µM (inactive)	> 100 µM (inactive)	
O=C1Nc2ccc(Br)cc2/C1=N/NC(=S)Nc1ccc([N+](=O)[O-])cc1		7.98 µM (inactive)	5.35 µM (inactive)	7.13 µM (inactive)	2.01 µM (inactive)	13.2 µM (inactive)	2.28 µM (inactive)	2.55 µM (inactive)	7.45 µM (inactive)	7.13 µM (inactive)	5.19 µM (inactive)	16.7 µM (inactive)	14.4 µM (inactive)	5.31 µM (inactive)	9.79 µM (inactive)	8.02 µM (inactive)		11.1 µM (inactive)	
COc1c(OC)c(OC)c(-c2cc(=O)c3c(OC)c(OC)c(OC)c(OC)c3o2)c(OC)c1OC	35 µM (inactive)	38 µM (inactive)	20.6 µM (inactive)	30.1 µM (inactive)	23.9 µM (inactive)	> 100 µM (inactive)	34.5 µM (inactive)	22.2 µM (inactive)	9.14 µM (inactive)		32.7 µM (inactive)	29.9 µM (inactive)	34.5 µM (inactive)	32.7 µM (inactive)	16.2 µM (inactive)	50.5 µM (inactive)	59.8 µM (inactive)	90.2 µM (inactive)	28.7 µM (inactive)
